Test results: patent US8399475B2, “Crystalline and amorphous forms of naltrexone hydrochloride” (Mallinckrodt LLC, priority 2007, dated 2013)

Assay: Solid-state stability / form conversion under wet or high humidity conditions

SMILES | humidity at which the form converts to Form II (exposure of solid to humidity) | stability under wet and/or high humidity environments (compared with non-hydrated forms)
Cl.O=C1CC[C@@]2(O)[C@H]3Cc4ccc(O)c5c4[C@@]2(CCN3CC2CC2)[C@H]1O5 [Form I, naltrexone hydrochloride] | above 70% RH. | –
Cl.O=C1CC[C@@]2(O)[C@H]3Cc4ccc(O)c5c4[C@@]2(CCN3CC2CC2)[C@H]1O5 [Form II, naltrexone hydrochloride] | – | more stable
